Experimental data: patent US10315990B2, “Isothiocyanate compounds and isothiocyanate XPO1 protein inhibitor drugs thereof” (DRIVINGFORCE THERAPEUTICS Co., Ltd., priority 2015, dated 2019)

What was measured:
HMLE-Snail cell line = assay: Formation of HMLE-Snail cell line spheroids; format: cell-based; details: 10 μg/ml, treated for 24 hours; control = 100; read-out: Colony (%): cell colony number of drug-treated group/cell colony number of control group × 100%
Protocol: HMLE-Snail cell line is one of most classic cell models for studying tumor cell metastasis and EMT path. HMLE-Snail cell line highly expresses Snail protein, and thus one of most remarkable features thereof is that it has spherical cellular morphology (spheroid). […] The HMLE-Snail cell line used in the present invention was donated by Dr. Robert Weinberg from America Massachusetts Whitehead Institute. HMLE-Snail cells were suspended in a liquid culture medium (in which B-27 and N-2 were added, purchased from America Invitrogen Corporation) containing DMEM/F12 in a ratio of 1:1, in an amount of 1.0×10^3 cells/ml, and cultured in an ultra low attachment culture plate so as to allow spheroids to be formed. Seven days later, spheroids were collected by centrifugation, and counted. […] Docetaxel is a common clinical chemotherapy drug.

XPO1 protein = molecular target: T1, XPO1 protein (Homo sapiens, UniProt O14980); assay: Inhibitory activity for XPO1 protein (NES-GFP nuclear export, laser confocal microscope); format: cell-based; details: NES-GFP nuclear export, cells treated for 2 hours
T1 construct: Sixteen hours later, NES-GFP plasmid was transfected with liposome; endogenous in cells
T1 sequence (O14980 whole entry, species assumed): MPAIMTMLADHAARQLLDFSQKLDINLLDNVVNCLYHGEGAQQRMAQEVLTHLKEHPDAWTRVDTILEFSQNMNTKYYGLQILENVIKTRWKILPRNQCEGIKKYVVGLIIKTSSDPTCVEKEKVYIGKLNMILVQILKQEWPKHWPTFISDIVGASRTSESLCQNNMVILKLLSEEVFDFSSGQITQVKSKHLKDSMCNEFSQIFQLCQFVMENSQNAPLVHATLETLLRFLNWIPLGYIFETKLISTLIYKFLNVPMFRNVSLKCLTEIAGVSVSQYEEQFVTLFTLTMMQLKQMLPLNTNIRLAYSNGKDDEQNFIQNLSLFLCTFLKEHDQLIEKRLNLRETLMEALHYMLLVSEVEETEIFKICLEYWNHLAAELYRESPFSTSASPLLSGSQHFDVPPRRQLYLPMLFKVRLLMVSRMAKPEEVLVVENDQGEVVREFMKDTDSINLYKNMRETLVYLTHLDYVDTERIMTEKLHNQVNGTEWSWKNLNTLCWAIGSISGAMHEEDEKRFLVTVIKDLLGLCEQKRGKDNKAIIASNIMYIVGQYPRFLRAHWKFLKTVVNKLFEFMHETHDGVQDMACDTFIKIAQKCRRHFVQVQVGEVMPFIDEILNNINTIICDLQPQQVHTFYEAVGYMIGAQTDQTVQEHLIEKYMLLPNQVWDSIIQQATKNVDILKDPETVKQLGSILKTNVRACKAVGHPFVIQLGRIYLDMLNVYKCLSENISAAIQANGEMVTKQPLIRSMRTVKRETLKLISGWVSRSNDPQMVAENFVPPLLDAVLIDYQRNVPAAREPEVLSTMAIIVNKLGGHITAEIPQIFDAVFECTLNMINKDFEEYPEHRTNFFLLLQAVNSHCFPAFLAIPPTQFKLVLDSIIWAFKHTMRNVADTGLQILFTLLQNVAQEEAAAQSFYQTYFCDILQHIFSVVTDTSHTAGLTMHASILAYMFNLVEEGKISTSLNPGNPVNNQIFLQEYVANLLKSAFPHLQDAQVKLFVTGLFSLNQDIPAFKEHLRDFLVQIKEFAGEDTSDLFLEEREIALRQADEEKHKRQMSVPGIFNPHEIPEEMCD
From the text: NES (nuclear export signal) is a nuclear export signal peptide recognized by XPO1 protein. XPO1 recognizes NES sequence peptide segment of biomacromolecule and exports the biomacromolecule out of nucleus. NES-GFP protein is obtained by co-expressing green fluorescence protein GFP and NES sequence peptide segment by using a eukaryotic expression plasmid. Inhibitory activity of the representative compound for XPO1 protein can be assessed by detecting influence of the compound on NES-GFP cell localization.
The cells were digested with trypsin, counted, and inoculated on 96-well plate in an amount of 1.5×10^4 cells per well. Sixteen hours later, NES-GFP plasmid was transfected with liposome.

HO-8910 = assay: Inhibitory activity for high metastasis type ovarian cancer cell line (MTT or CCK-8); format: cell-based; details: HO-8910, 72 hours; read-out: IC50
Protocol: (§1) The two cell lines were inoculated on 96-well cell culture plate in an amount of 6000 cells per well and cultured at 37° C. for 24 hours, and then treated solely with the representative compound added therein and cultured. Seventy-two hours later, MTT or CCK-8 method was used to detect the inhibitory activity of the representative compound for the high metastasis type ovarian cancer cell lines.

A2780 = assay: as above; format: cell-based; details: Homo sapiens; A2780, 72 hours; read-out: IC50
Protocol: as §1

[1] = system: SK-OV3 (high metastasis type ovarian cancer cell line); assay: Ovarian cancer intraperitoneal metastasis animal model; format: in vivo, nudemice (BALB/c-nu/nu); details: Mus musculus, SK-OV-3, ip; for response vs control in vivo at 80 mg/kg: 504 h, 80 mg/kg intraperitoneal injection once a day for 3 weeks, read-out: T/C (%); for mortality at 80 mg/kg: 720 h, six mice per group, read-out: Mortality (within 30 days) (converted)
Protocol: The ovarian cancer intraperitoneal metastasis animal model is one of most classic animal models for studying anti-ovarian cancer metastasis drug. Sixty 5 to 6-week-old female nudemice with similar weight (BALB/c-nu/nu) were chosen. SK-OV3 (high metastasis type ovarian cancer cell line) stably expressing green fluorescence protein was screened, and prepared into a cell suspension of 2×10^6 cells/100 μl with serum-free PRMI1640 medium. […] Three weeks later, the cancer was detected with a small animal in vivo imaging apparatus (Xenogen, School of Medicine, Shanghai Jiaotong University) and photos thereof were taken. […] In the table, T represents the drug-treated group, and C represents the blank control group. T/C is (V/V0 of compound-treated group)/(V/V0 of blank control group) in which V represents the cancer volume of mouse on the day the detection was performed, and V0 represents the cancer volume of mouse on the day the administration begun.

IL-6 = assay: Serum IL-6 level of IBD animal model (ELISA); format: in vivo, SD rats; details: 80 mg/kg, three days after making the TNBS model
From the text: (§2) Inflammatory bowel disease is an autoimmune disease. […] The therapeutic effect of the representative compound for the immune system disease or inflammation can be assessed by detecting change in levels of some important cytokines such as TNF-α and IL-6 at downstream of the signal path.

TNF-α = assay: Serum TNF-α level of IBD animal model (ELISA); format: in vivo, SD rats; details: 80 mg/kg, three days after making the TNBS model
From the text: as §2

U2932 = assay: Inhibitory activity for high metastasis type lymphoma cell line (MTT or CCK-8); format: cell-based; details: Homo sapiens; U2932, 72 hours; read-out: IC50
Protocol: (§3) Jeko-1, Raji and U2932 are three typical high metastasis type lymphoma cell lines. The lymphoma cell line was inoculated on 96-well cell culture plate in an amount of 6000 cells per well and cultured at 37° C. for 24 hours, and then treated solely with the compound added therein and cultured. Seventy-two hours later, MTT or CCK-8 method was used to detect the inhibitory activity of the compound for the two high metastasis type lymphoma cell lines.

Raji = assay: as above; format: cell-based; details: Homo sapiens, 72 hours, read-out: IC50
Protocol: as §3

Jeko-1 = assay: as above; format: cell-based; details: Homo sapiens; Jeko-1, 72 hours; read-out: IC50
Protocol: as §3

NCI-H1650 = assay: cells; format: cell-based; details: Homo sapiens; NCI-H1650, 72 hours; read-out: IC50
Protocol: (§4) NCI-H1975 and NCI-H1650 are two typical high metastasis type lung cancer cell lines. The therapeutic effect of the representative compound for the metastasis type lung cancers can be preliminarily assessed by detecting the inhibitory activity of the representative compound for the two cell lines. The lung cancer cell line was inoculated on 96-well cell culture plate in an amount of 6000 cells per well and cultured at 37° C. for 24 hours, and then treated solely with the compound added therein and cultured. Seventy-two hours later, MTT or CCK-8 method was used to detect the inhibitory activity of the compound for the two lung cancer cell lines.

NCI-H1975 = assay: cells; format: cell-based; details: Homo sapiens; NCI-H1975, 72 hours; read-out: IC50
Protocol: as §4

SW620 = assay: Inhibitory activity for high metastasis type colon cancer cell line (MTT or CCK-8); format: cell-based; details: Homo sapiens, SW-620; SW620, 72 hours; read-out: IC50
Protocol: (§5) SW620 and HCT116 are two typical high metastasis type colon cancer cell lines. The colon cancer cell line was inoculated on 96-well cell culture plate in an amount of 6000 cells per well and cultured at 37° C. for 24 hours, and then treated solely with the compound added therein and cultured. Seventy-two hours later, MTT or CCK-8 method was used to detect the inhibitory activity of the compound for the two high metastasis type colon cancer cell lines.

HCT116 = assay: as above; format: cell-based; details: Homo sapiens, HCT-116; HCT116, 72 hours; read-out: IC50
Protocol: as §5

IBD animal model = assay: Macroscopic pathological changes of IBD animal model (enteroclysis with TNBS); format: in vivo, SD rats; details: TNBS rats; for Macroscopic pathological score: 80 mg/kg intragastrically daily, score 0-5, 10 animals
Protocol: Eight-week-old male SD rats (10 rats per group) were fasted for 24 hours and anaesthetized with diethyl ether. 50% ethanol and TNBS (2,4,6-trinitrobenzenesulfonic acid) were mixed to prepare a solution. In the IBD model group, a tube made of vinyl resin was inserted 5 cm from anus, and enteroclysis was performed with the TNBS solution in a dose of 100 mg/kg. The rats were hung upside down 30 seconds later after the enteroclysis to ensure no leakage of the TNBS solution. In the control group, the TNBS solution was replaced with normal saline with which enteroclysis was performed. Seven days later after the enteroclysis with the TNBS solution or normal saline, animals were sacrificed and dissected. […] Two weeks later after treated with the drugs, the animals were sacrificed and dissected, and large intestine thereof was taken out and fixed in 4% formalin solution for 30 minutes. The large intestine of the animals was cut lengthwise from the mesentery side to take photos for rectum portion and measure the weight of rectum. Based on the macroscopic observation and judgment score (Table 2-1), ulceration and bleeding states of rectum portion were scored according to the macroscopic observation scoring standard.

CaSki = assay: Inhibitory activity for other high metastasis type cancer cell line (MTT or CCK-8); format: cell-based; details: Homo sapiens, Ca-Ski; CaSki, 72 hours; read-out: IC50
786-O = assay: as above; format: cell-based; details: Homo sapiens, 786-0; 786-O, 72 hours; read-out: IC50
Saos-2 = assay: as above; format: cell-based; details: Homo sapiens; Saos-2, 72 hours; read-out: IC50
KYSE-70 = assay: as above; format: cell-based; details: Homo sapiens; KYSE-70, 72 hours; read-out: IC50
Panc-1 = assay: as above; format: cell-based; details: Homo sapiens; Panc-1, 72 hours; read-out: IC50

## [O-][S+](/C=C/CCN=C=S)c1ccc(Oc2ccccc2)cc1 (centres unmarked) [Compound I-27]
HMLE-Snail cell line
  activity at 10 µg/mL: 25 to 30%
XPO1 protein
  Activity (μM): inhibitory activity for XPO1 protein (full inhibitory concentration): 0.5 to 1 µM
HO-8910
  IC50: 800 nM
A2780
  IC50: 1200 nM
[1]
  response vs control in vivo at 80 mg/kg: 25%
  mortality at 80 mg/kg: 0%

## [O-][S+](/C=C/CCN=C=S)C1CC1 (centres unmarked) [Compound F-03, reference compound]
HMLE-Snail cell line
  activity at 10 µg/mL: 55 to 60%
IL-6
  Serum IL-6 level, Animal-1: 1.7 ng/mL
  Serum IL-6 level, Animal-2: 1.8 ng/mL
  Serum IL-6 level, Animal-3: 1.8 ng/mL
XPO1 protein
  Activity (μM): inhibitory activity for XPO1 protein (full inhibitory concentration): 5 to 10 µM
TNF-α
  Serum TNF-α level, Animal-1: 1.7 ng/mL
  Serum TNF-α level, Animal-2: 1.6 ng/mL
  Serum TNF-α level, Animal-3: 1.5 ng/mL
U2932
  IC50: 4900 nM
Raji
  IC50: 3200 nM
Jeko-1
  IC50: 3100 nM
NCI-H1650
  IC50: 4900 nM
NCI-H1975
  IC50: 5800 nM
SW620
  IC50: 3300 nM
HCT116
  IC50: 2900 nM
IBD animal model
  Macroscopic pathological score: 2.5 ± 0.6
[1]
  response vs control in vivo at 80 mg/kg: 35%
  mortality at 80 mg/kg: 0%

## S=C=NCCc1ccccc1 [PEITC, phenylethylisothiocyanate, reference compound]
HMLE-Snail cell line
  activity at 10 µg/mL: 85%
IL-6
  Serum IL-6 level, Animal-1: 2.2 ng/mL
  Serum IL-6 level, Animal-2: 2.1 ng/mL
  Serum IL-6 level, Animal-3: 2.1 ng/mL
XPO1 protein
  Activity (μM): inhibitory activity for XPO1 protein (full inhibitory concentration): 30 µM
TNF-α
  Serum TNF-α level, Animal-1: 2.0 ng/mL
  Serum TNF-α level, Animal-2: 1.9 ng/mL
  Serum TNF-α level, Animal-3: 2.0 ng/mL
U2932
  IC50: 11700 nM
Raji
  IC50: 9300 nM
Jeko-1
  IC50: 8700 nM
HO-8910
  IC50: 15500 nM
A2780
  IC50: 17600 nM
SW620
  IC50: 10200 nM
HCT116
  IC50: 8400 nM
IBD animal model
  Macroscopic pathological score: 3.5 ± 0.3
IBD animal model; 80 mg/kg
  colon tissue bleeding and ulceration phenomena (in words): small relief extent
[1]
  response vs control in vivo at 80 mg/kg: 71%
  mortality at 80 mg/kg: 0%

## [O-][S+](/C=C/CCN=C=S)c1ccc(Cl)c(C(F)(F)F)c1 (centres unmarked) [Compound I-03]
HMLE-Snail cell line
  activity at 10 µg/mL: 25 to 30%
IL-6
  Serum IL-6 level, Animal-1: 0.9 ng/mL
  Serum IL-6 level, Animal-2: 0.8 ng/mL
  Serum IL-6 level, Animal-3: 0.7 ng/mL
CaSki
  IC50: 1500 nM
XPO1 protein
  Activity (μM): inhibitory activity for XPO1 protein (full inhibitory concentration): 0.5 to 1 µM
786-O
  IC50: 1300 nM
TNF-α
  Serum TNF-α level, Animal-1: 1.3 ng/mL
  Serum TNF-α level, Animal-2: 1.1 ng/mL
  Serum TNF-α level, Animal-3: 0.7 ng/mL
Saos-2
  IC50: 2600 nM
KYSE-70
  IC50: 1800 nM
Panc-1
  IC50: 1600 nM

## [O-][S+](/C=C/CCN=C=S)c1nnnn1-c1ccccc1 (centres unmarked) [Compound I-25]
HMLE-Snail cell line
  activity at 10 µg/mL: 10 to 15%
IL-6
  Serum IL-6 level, Animal-1: 0.6 ng/mL
  Serum IL-6 level, Animal-2: 0.7 ng/mL
  Serum IL-6 level, Animal-3: 0.5 ng/mL
TNF-α
  Serum TNF-α level, Animal-1: 1.0 ng/mL
  Serum TNF-α level, Animal-2: 0.5 ng/mL
  Serum TNF-α level, Animal-3: 0.8 ng/mL
U2932
  IC50: 250 nM
Raji
  IC50: 180 nM
Jeko-1
  IC50: 150 nM
HO-8910
  IC50: 300 nM
A2780
  IC50: 700 nM
NCI-H1650
  IC50: 220 nM
NCI-H1975
  IC50: 250 nM
IBD animal model
  Macroscopic pathological score: 1.5 ± 0.3
